Results published in ChEMBL document CHEMBL1201862, “PubChem BioAssay data set” (2004).
Activity calls are given as the source filed them.

What was measured:
[1] = biological target: T1, Replicative DNA helicase DnaB (Mycobacterium tuberculosis, UniProt P9WMR3); experiment: DnaB intein splicing inhibitors, dose response, biochemical, cell-free fluorescence (AID 449749); assay type: functional
T1 sequence (P9WMR3 whole entry): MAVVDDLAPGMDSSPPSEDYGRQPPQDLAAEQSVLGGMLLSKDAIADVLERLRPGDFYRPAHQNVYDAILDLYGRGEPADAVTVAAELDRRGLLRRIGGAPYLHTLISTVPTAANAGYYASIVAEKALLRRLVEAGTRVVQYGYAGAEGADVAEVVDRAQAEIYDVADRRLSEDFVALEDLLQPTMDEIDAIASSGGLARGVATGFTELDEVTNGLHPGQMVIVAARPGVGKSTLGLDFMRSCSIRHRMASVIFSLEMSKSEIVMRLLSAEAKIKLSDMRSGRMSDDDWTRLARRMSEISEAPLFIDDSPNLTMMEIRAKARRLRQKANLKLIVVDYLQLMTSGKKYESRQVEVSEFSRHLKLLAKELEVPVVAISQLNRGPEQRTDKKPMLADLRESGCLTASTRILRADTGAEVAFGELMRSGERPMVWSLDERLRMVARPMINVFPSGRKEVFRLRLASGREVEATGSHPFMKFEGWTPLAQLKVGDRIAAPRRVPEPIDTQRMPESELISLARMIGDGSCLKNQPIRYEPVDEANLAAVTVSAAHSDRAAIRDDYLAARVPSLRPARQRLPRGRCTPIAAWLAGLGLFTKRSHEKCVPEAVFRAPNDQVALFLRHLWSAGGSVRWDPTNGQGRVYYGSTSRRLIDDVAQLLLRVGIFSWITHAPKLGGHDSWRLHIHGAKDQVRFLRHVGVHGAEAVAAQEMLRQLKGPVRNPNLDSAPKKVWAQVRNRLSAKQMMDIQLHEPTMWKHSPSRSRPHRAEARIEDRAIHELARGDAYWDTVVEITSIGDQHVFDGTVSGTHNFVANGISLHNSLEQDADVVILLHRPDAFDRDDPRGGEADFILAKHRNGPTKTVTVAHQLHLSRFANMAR

[2] = biological target: T2, Protein RecA (Mycobacterium tuberculosis, UniProt P9WHJ3); experiment: Fluorescence Cell-Free Homogeneous Dose Retest to Identify Inhibitors of RecA-Intein Splicing Activity. [Related pubchem assays (depositor defined):AID2097, AID2223, AID489010, AID492950]; assay type: functional
T2 sequence (P9WHJ3 whole entry): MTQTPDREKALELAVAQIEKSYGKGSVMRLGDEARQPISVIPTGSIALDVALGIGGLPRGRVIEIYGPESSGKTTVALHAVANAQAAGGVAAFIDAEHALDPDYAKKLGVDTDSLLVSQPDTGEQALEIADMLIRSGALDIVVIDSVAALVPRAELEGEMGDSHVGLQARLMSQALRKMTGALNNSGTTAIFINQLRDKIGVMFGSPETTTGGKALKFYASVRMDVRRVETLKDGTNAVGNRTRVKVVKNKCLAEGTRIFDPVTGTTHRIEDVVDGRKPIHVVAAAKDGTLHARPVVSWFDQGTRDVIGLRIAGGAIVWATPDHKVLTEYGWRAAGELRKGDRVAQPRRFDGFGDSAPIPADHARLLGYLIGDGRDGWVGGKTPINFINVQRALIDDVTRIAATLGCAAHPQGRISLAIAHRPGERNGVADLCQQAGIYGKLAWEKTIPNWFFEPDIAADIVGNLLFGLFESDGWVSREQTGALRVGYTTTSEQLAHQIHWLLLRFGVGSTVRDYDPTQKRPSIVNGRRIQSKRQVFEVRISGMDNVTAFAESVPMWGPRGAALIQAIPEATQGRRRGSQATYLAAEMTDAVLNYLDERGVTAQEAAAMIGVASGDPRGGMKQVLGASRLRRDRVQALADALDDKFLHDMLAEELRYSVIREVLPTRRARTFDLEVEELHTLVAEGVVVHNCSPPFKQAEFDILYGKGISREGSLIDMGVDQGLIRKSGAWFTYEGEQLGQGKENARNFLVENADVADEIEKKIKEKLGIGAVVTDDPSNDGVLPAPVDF

[3] = biological target: Cytochrome P450 3A4 (Homo sapiens, UniProt P08684);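 further: CYP3A4 tested as one member of a cytochrome P450 panel screen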
[4] = biological target: Cytochrome P450 2C19 (Homo sapiens, UniProt P33261); experiment: Cytochrome panel assay with activity outcomes. Panel member name: p450-cyp2c19 Compounds with AC50 equal or less than 10 uM are considered active; assay type: functional
[5] = biological target: T3, Heat shock factor protein 1 (Mus musculus, UniProt P38532); experiment: decrease of HSF1-responsive luciferase luminescence – cell-based, NIH3T3, dose retest, confirmation (AID 2382); assay type: functional;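 further: NIH3T3 fibroblasts with HSF1-driven luciferase reporter stressed by proteasome inhibitor MG132; luminescence from HSF1-driven luciferase expression after 8 hours of MG132 stress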
T3 sequence (P38532 whole entry): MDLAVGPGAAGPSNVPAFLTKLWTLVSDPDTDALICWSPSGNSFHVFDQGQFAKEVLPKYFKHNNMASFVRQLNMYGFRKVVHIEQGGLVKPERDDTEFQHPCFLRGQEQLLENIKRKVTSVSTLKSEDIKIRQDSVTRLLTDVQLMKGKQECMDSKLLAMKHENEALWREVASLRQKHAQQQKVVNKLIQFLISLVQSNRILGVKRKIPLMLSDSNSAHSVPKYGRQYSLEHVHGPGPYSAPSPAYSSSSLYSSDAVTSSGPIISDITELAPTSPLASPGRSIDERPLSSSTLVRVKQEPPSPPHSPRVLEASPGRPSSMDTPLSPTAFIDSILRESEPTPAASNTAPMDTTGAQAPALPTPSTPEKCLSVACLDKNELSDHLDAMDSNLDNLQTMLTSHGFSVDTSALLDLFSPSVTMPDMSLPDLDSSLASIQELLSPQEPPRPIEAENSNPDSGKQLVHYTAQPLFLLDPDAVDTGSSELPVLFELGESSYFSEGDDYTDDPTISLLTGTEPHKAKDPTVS

[6] = biological target: T4, Cytochrome P450 1A2 (Homo sapiens, UniProt P05177);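 further: PubChem cytochrome P450 panel assay, CYP1A2 panel member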
T4 sequence (P05177 whole entry): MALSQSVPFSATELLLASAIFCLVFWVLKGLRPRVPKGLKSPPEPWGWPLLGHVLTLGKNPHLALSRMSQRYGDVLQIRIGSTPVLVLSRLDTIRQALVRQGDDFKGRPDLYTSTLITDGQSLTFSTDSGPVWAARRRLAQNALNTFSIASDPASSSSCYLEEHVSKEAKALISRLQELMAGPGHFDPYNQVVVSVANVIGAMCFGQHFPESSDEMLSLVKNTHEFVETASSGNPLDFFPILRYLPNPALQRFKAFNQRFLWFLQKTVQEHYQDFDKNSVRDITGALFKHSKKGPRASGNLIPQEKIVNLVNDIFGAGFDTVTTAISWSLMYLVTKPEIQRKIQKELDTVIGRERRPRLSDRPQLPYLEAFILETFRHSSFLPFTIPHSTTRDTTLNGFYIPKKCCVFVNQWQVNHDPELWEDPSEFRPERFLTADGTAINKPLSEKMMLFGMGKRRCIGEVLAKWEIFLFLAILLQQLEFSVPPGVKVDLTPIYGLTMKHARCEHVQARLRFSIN

Sequence of Cytochrome P450 2C19 (P33261 whole entry): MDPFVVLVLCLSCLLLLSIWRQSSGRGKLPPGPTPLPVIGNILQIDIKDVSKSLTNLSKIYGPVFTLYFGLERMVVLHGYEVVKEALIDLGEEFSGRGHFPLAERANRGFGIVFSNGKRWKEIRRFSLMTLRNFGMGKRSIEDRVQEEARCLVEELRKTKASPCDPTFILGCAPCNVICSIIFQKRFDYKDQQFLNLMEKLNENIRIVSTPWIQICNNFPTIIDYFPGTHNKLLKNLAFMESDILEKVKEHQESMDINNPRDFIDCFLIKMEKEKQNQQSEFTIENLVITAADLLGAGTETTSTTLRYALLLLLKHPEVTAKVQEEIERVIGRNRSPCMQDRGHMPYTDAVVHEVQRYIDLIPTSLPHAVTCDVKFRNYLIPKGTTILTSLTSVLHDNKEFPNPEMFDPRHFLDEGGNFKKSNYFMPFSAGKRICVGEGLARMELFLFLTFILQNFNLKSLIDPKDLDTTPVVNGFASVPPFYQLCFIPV
Sequence of Cytochrome P450 3A4 (P08684 whole entry): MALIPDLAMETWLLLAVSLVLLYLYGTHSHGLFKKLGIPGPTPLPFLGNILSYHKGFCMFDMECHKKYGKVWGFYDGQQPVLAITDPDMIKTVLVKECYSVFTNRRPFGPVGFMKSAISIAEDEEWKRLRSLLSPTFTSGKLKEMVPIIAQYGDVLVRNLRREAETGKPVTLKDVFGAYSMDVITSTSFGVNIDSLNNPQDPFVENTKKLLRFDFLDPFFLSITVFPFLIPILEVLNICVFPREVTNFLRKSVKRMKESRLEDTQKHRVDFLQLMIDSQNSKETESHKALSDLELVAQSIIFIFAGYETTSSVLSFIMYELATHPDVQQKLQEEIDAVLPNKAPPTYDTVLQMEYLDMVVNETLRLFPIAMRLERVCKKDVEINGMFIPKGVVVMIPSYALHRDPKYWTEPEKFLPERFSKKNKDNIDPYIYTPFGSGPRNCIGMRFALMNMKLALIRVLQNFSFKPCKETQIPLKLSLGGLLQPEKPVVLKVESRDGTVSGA

Compound: Fc1ccc(Oc2nc(-c3ccccc3)nnc2C(F)(F)F)cc1
- AC50 [1]: 2.95 µM (active)
- EC50 [2]: 2.28 µM (active)

Compound: N#C/C(=N\O)c1nc(-c2ccccc2)cs1
- AC50 [3]: 15.8 µM (inconclusive)
- AC50 ([4]; read-out: AC50): 39.8 µM (inconclusive)

Compound: COc1cc(/C=N/NC(=O)c2ccc(F)cc2)ccc1OC(=O)c1ccco1
- AC50 [1]: 24 µM (active)
- EC50 [2]: 20 µM (active)

Compound: Cc1ccc2c(c1)c1c(n2CC(O)CN2CCOCC2)CCCC1 (centres undefined)
- EC50 [5]: > 195 µM (not active)

Compound: CCOc1cc(/C=C2\C(=O)N(CCC#N)N=C2C)ccc1OCC(N)=O
- AC50 [1]: 6.01 µM (active)
- EC50 [2]: 3.61 µM (active)

Compound: Cc1ccc(Cn2c(C3CCCN3c3nc(C)cs3)nc3cc(C(F)(F)F)ccc32)cc1 (centres undefined)
- EC50 [5]: > 195 µM (not active)

Compound: CCSc1c([N+](=O)[O-])c(=O)n(-c2ccccc2)c2ccccc12
- AC50 [1]: 3.94 µM (active)
- EC50 [2]: 155 µM (active)

Compound: Cc1ccc(S(=O)(=O)N2CCN(S(C)(=O)=O)C2)cc1
- EC50 [5]: > 195 µM (not active)

Compound: COc1ccc(CNC(=O)CCCCCNC(=O)N2CCn3c2nc2ccccc23)cc1
- EC50 [5]: > 195 µM (not active)

Compound: O=C(CN1C(=O)c2ccccc2S1(=O)=O)NCc1cccs1
- EC50 [5]: > 195 µM (not active)

Compound: N#C[C@H]1[C@H](c2ccccc2)[C@](C#N)(C(=O)c2ccccc2)[C@@H]2C=Cc3ccccc3N21
- AC50 [1]: > 380 µM (inactive)
- EC50 [2]: 8.36 µM (active)

Compound: CC(=O)c1c(N2CCC(C(N)=O)CC2)nc(=S)n(-c2ccccc2)c1C
- AC50 ([4]; read-out: AC50): 31.6 µM (inconclusive)

Compound: O=C(NC(=S)NC1C2CC3CC(C2)CC1C3)c1ccccc1 (centres undefined)
- EC50 [5]: > 195 µM (not active)

Compound: O=C(c1cccs1)[C@@H]1[C@@H]2C(=O)N(Cc3ccc4c(c3)OCO4)C(=O)[C@@H]2C2c3ccccc3C=CN21 (some centres undefined)
- AC50 [1]: 4.09 µM (active)
- EC50 [2]: 3.22 µM (active)

Compound: N#CCCn1c(=O)c(CCc2ccccc2)nc2cnc(OCc3ccccc3)nc21
- AC50 [3]: 0.2 µM (inconclusive)
- AC50 ([4]; read-out: AC50): 39.8 µM (inconclusive)
- AC50 [6]: 12.6 µM (inconclusive)

Compound: COC1(OC)N=C(NC(=O)Nc2ccccc2)C2(C#N)C(c3ccccc3)C12C#N (centres undefined)
- AC50 ([4]; read-out: AC50): 5.01 µM (inconclusive)
- AC50 [6]: 39.8 µM (inconclusive)

Compound: O=C(O)c1cccc(Cn2c(Cl)c(/C=N/Nc3ccccc3)sc2=O)c1
- AC50 [1]: > 380 µM (inactive)
- EC50 [2]: > 380 µM (inactive)

Compound: N[C@]1(C(=O)O)CCc2cc(P(=O)(O)O)ccc21
- AC50 ([4]; read-out: AC50): 15.8 µM (inconclusive)
- AC50 [6]: 39.8 µM (inconclusive)

Compound: COc1ccc(-c2noc(CCC(=O)Nc3ccc(C)c(C)c3)n2)cc1
- EC50 [5]: > 195 µM (not active)

Compound: CN1CCN(Cc2cc(=O)oc3ccc(Cl)cc23)CC1
- AC50 [1]: > 380 µM (inactive)
- EC50 [2]: > 380 µM (inactive)

Compound: CCOC(=O)N1CCN(C(=O)c2ccc(CS(=O)(=O)c3c(Cl)cccc3Cl)o2)CC1
- EC50 [5]: > 195 µM (not active)

Compound: COc1ccc(-c2nc(CSCC(=O)NCC3CCCO3)c(C)o2)cc1OC (centres undefined)
- AC50 [3]: 39.8 µM (inconclusive)
- AC50 ([4]; read-out: AC50): 31.6 µM (inconclusive)

Compound: CCCC[C@@H](CNC)NC[C@H](Cc1ccc(O)cc1)NCCc1ccc(OCC)cc1
- EC50 [5]: > 195 µM (not active)

Compound: O=C(Oc1ccc(OC(=O)c2ccco2)c(S(=O)(=O)c2ccc(Br)cc2)c1)c1ccco1
- AC50 [3]: 5.62 µM (inconclusive)
- AC50 ([4]; read-out: AC50): 1.41 µM (inconclusive)
- AC50 [6]: 2.24 µM (inconclusive)

Compound: COc1ccc(-c2cc(C(=O)NCc3cccnc3)no2)cc1OC
- AC50 ([4]; read-out: AC50): 28.2 µM (inconclusive)

Compound: O=C(CSC(=S)N1CCOCC1)Nc1nc(-c2ccccc2)c(-c2ccccc2)o1
- EC50 [5]: > 195 µM (not active)

Compound: Cn1cc(-c2nc3cnc(N4CCOCC4)nc3n(C3CC3)c2=O)c2ccccc21
- AC50 [3]: 7.94 µM (inconclusive)
- AC50 [4]: inconclusive
- AC50 [6]: 3.16 µM (inconclusive)

Compound: CCOc1cc(/C=N/NC(=O)CN2CCCCC2)ccc1OCc1ccccc1
- AC50 ([4]; read-out: AC50): 25.1 µM (inconclusive)

Compound: O=C(c1ccco1)N1CCN=C1SCc1ccccc1F
- EC50 [5]: > 195 µM (not active)

Compound: O=C1C(Cl)=C(N2CCCCCC2)C(=O)N1c1ccccc1
- AC50 [1]: > 380 µM (inactive)
- EC50 [2]: 10.3 µM (active)

Compound: O=C(O)CCCNC(=O)CCCNC(=O)C(c1ccccc1)c1ccccc1
- EC50 [5]: > 195 µM (not active)

Compound: Cc1ccc(SC(C)C(=O)NCc2cccnc2)cc1 (centres undefined)
- AC50 [3]: 1 µM (inconclusive)
- AC50 ([4]; read-out: AC50): 7.08 µM (inconclusive)

Compound: COC(=O)c1cc(NC(=O)Nc2ccccc2OC)cc(C(=O)OC)c1
- EC50 [2]: > 380 µM (inactive)

Compound: O=C(c1cc(F)c(F)cc1Cl)N1CCN(c2ccc([N+](=O)[O-])c3ncccc23)CC1
- AC50 [1]: 3.47 µM (active)
- EC50 [2]: 11.8 µM (active)

Compound: CCOC(=O)CSc1nc(C)cc(Oc2ccc(=O)n(C)n2)n1
- EC50 [5]: 28.1 µM (active)

Compound: Cc1n[nH]c(O)c1C(c1cc2c(cc1Br)OCO2)c1c(C)n[nH]c1O
- AC50 [1]: 0.723 µM (active)
- EC50 [2]: 0.352 µM (active)

Compound: O=C(O)c1cccc2cc(-c3ccccc3)oc(=O)c12
- EC50 [5]: > 195 µM (not active)
